Data: patent US20250040539A1, “COMPOSITION COMPRISING AN ANTIMICROBIAL AGENT AND A CARBOXAMIDE” (BASF SE, priority 2021, published 2025)

Test system: bacterial mix: Escherichia coli DSM 1576, Alcaligenes faecalis DSM 13644, Pseudomonas aeruginosa ATCC 15442, Staphylococcus aureus ATCC 6538, Burkholderia …
Assay: Preservative activity of a basic composition (10% PG in water, pH 7) with 1,2-benzisothiazol-3(2H)-one (BIT) against bacterial contamination (Example 2.3)
Format: cell-based
Conditions: 10% PG + 0.004% BIT, no amide (Comparative 2); day 7
Experimental: An aqueous composition of pH 7 comprising 10% by weight of propyleneglycol (PG) as organic solvent, 0.004% by weight of 1,2-benzisothiazol-3(2H)-one (BIT) as antimicrobial and 0.04% by weight of the amide listed in the below table was tested for its preserving activity against bacterial contamination (the percentages are weight percent and relate to the total weight of the composition). For this purpose, the samples were contaminated with a bacterial mix consisting of: • Escherichia coli DSM 1576 • Alcaligenes faecalis DSM 13644 • Pseudomonas aeruginosa ATCC 15442 • Staphylococcus aureus ATCC 6538 • Burkholderia cepacia DSM 7288 • Pseudomonas putida DSM 12735
The samples were inoculated with the bacterial mix at day 0 to obtain 10E+06 to 10E+07 CFU/ml inoculation in the test sample and stored at 25° C. for 7 days.
CFU was determined at day 7.
Any CFU value at day 7 (d7) obtained with a sample according to the invention containing BIT and amide (10% PG+0.004% BIT+Amide in water) lower than the respective value of the “comparative 2” example (10% by weight of propyleneglycol+0.004% by weight of 1,2-benzisothiazol-3(2H)-one (BIT) in water) indicates a better performance.

O=c1[nH]sc2ccccc12 [BIT, 1,2-benzisothiazol-3(2H)-one, reference compound]
d7 [CFU/ml]: >100,000 CFU/ml
